How the values were obtained:
Assay in all cases: relative viability (nuclei count vs DMSO), 5 days (fraction); higher = more cells survive
NCI-H2405 = tested on: NCI-H2405
Summary of the method: (§1)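 A single step with final 0.05% Triton X-100, 1% formaldehyde and 1 ug/ml Hoechst fixed the cells and stained nuclei 5 days after treatment. Lung cancer cell lines in 1536-well plates had been treated by pin tool the day after seeding with one drug alone or a fixed anchor-drug dose plus five library-drug doses (not always all listed) in √10 steps, and nuclei were counted on 4× images. Relative viability is the ratio of nuclei in treated wells to nuclei in vehicle wells, taken as the median of duplicate plates.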

SK-MES-1 = tested on: SK-MES-1
Summary of the method: as §1

NCI-H647 = tested on: NCI-H647
Summary of the method: as §1

NCI-H1915 = tested on: NCI-H1915
Summary of the method: as §1

A-427 = tested on: A-427
Summary of the method: as §1

NCI-H661 = tested on: NCI-H661
Summary of the method: as §1

COR-L23 = tested on: COR-L23
Summary of the method: as §1

NCI-H1993 = tested on: NCI-H1993
Summary of the method: as §1

COR-L 105 = tested on: COR-L 105
Summary of the method: as §1

HCC-366 = tested on: HCC-366
Summary of the method: as §1

PC-14 = tested on: PC-14
Summary of the method: as §1

EMC-BAC-2 = tested on: EMC-BAC-2
Summary of the method: as §1

HCC-78 = tested on: HCC-78
Summary of the method: as §1

201T = tested on: 201T
Summary of the method: as §1

HOP-62 = tested on: HOP-62
Summary of the method: as §1

NCI-H460 = tested on: NCI-H460
Summary of the method: as §1

LK-2 = tested on: LK-2
Summary of the method: as §1

NCI-H1563 = tested on: NCI-H1563
Summary of the method: as §1

EKVX = tested on: EKVX
Summary of the method: as §1

BEN = tested on: BEN
Summary of the method: as §1

NCI-H1734 = tested on: NCI-H1734
Summary of the method: as §1

HCC-15 = tested on: HCC-15
Summary of the method: as §1

In the case of `CCNC(=O)c1noc(-c2cc(C(C)C)c(O)cc2O)c1-c1ccc(CN2CCOCC2)cc1` [Luminespib] + CS(=O)(=O)CCNCc1ccc(-c2ccc3ncnc(Nc4ccc(OCc5cccc(F)c5)c(Cl)c4)c3c2)o1 [Lapatinib] (partner 2 µM), the relative viability (NCI-H2405; first compound 0.002 µM) is reported as 1.17, the relative viability (NCI-H2405; first compound 0.006325 µM) is reported as 0.876 and the relative viability (NCI-H2405; first compound 0.02 µM) is reported as 0.869. It also gave a relative viability (NCI-H2405; first compound 0.06325 µM) of 0.144, a relative viability (NCI-H2405; first compound 0.2 µM) of 0.125 and a relative viability (SK-MES-1; first compound 0.002 µM) of 0.461. For the same compound, the relative viability (SK-MES-1; first compound 0.006325 µM) was 0.459, the relative viability (SK-MES-1; first compound 0.02 µM) was 0.407 and the relative viability (SK-MES-1; first compound 0.06325 µM) was 0.265. For the same compound, the relative viability (SK-MES-1; first compound 0.2 µM) was 0.159, the relative viability (NCI-H647; first compound 0.002 µM) was 1.2 and the relative viability (NCI-H647; first compound 0.006325 µM) was 1.16. The relative viability (NCI-H647; first compound 0.02 µM) was 0.359, the relative viability (NCI-H647; first compound 0.06325 µM) was 0.0578 and the relative viability (NCI-H647; first compound 0.2 µM) was 0.0724. The relative viability (NCI-H1915; first compound 0.002 µM) was 0.943, the relative viability (NCI-H1915; first compound 0.006325 µM) was 0.957 and the relative viability (NCI-H1915; first compound 0.02 µM) was 0.932. The relative viability (NCI-H1915; first compound 0.06325 µM) was 0.99, the relative viability (NCI-H1915; first compound 0.2 µM) was 0.284 and the relative viability (A-427; first compound 0.002 µM) was 1.08. It also gave a relative viability (A-427; first compound 0.006325 µM) of 1.02, a relative viability (A-427; first compound 0.02 µM) of 0.771 and a relative viability (A-427; first compound 0.06325 µM) of 1.04. It also gave a relative viability (A-427; first compound 0.2 µM) of 0.975, a relative viability (NCI-H661; first compound 0.002 µM) of 0.469 and a relative viability (NCI-H661; first compound 0.006325 µM) of 0.464. The relative viability (NCI-H661; first compound 0.02 µM) was 0.35, the relative viability (NCI-H661; first compound 0.06325 µM) was 0.324 and the relative viability (NCI-H661; first compound 0.2 µM) was 0.208. It also gave a relative viability (COR-L23; first compound 0.002 µM) of 1.22, a relative viability (COR-L23; first compound 0.006325 µM) of 0.945 and a relative viability (COR-L23; first compound 0.02 µM) of 0.924. It also gave a relative viability (COR-L23; first compound 0.06325 µM) of 0.0749, a relative viability (COR-L23; first compound 0.2 µM) of 0.0671 and a relative viability (NCI-H1993; first compound 0.002 µM) of 0.874. The relative viability (NCI-H1993; first compound 0.006325 µM) was 0.864, the relative viability (NCI-H1993; first compound 0.02 µM) was 0.654 and the relative viability (NCI-H1993; first compound 0.06325 µM) was 0.491. For the same compound, the relative viability (NCI-H1993; first compound 0.2 µM) was 0.418, the relative viability (COR-L 105; first compound 0.002 µM) was 0.363 and the relative viability (COR-L 105; first compound 0.006325 µM) was 0.354. The relative viability (COR-L 105; first compound 0.02 µM) was 0.283, the relative viability (COR-L 105; first compound 0.06325 µM) was 0.266 and the relative viability (COR-L 105; first compound 0.2 µM) was 0.302. The relative viability (HCC-366; first compound 0.002 µM) was 1.07, the relative viability (HCC-366; first compound 0.006325 µM) was 1.05 and the relative viability (HCC-366; first compound 0.02 µM) was 0.13. It also gave a relative viability (HCC-366; first compound 0.06325 µM) of 0.0159, a relative viability (HCC-366; first compound 0.2 µM) of 0.0157 and a relative viability (PC-14; first compound 0.002 µM) of 0.383. It also gave a relative viability (PC-14; first compound 0.006325 µM) of 0.267, a relative viability (PC-14; first compound 0.02 µM) of 0.247 and a relative viability (PC-14; first compound 0.06325 µM) of 0.138. It also gave a relative viability (PC-14; first compound 0.2 µM) of 0.116, a relative viability (EMC-BAC-2; first compound 0.002 µM) of 0.942 and a relative viability (EMC-BAC-2; first compound 0.006325 µM) of 0.84. For the same compound, the relative viability (EMC-BAC-2; first compound 0.02 µM) was 0.597, the relative viability (EMC-BAC-2; first compound 0.06325 µM) was 0.853 and the relative viability (EMC-BAC-2; first compound 0.2 µM) was 0.781. For the same compound, the relative viability (HCC-78; first compound 0.002 µM) was 0.572, the relative viability (HCC-78; first compound 0.06325 µM) was 1.32 and the relative viability (HCC-78; first compound 0.2 µM) was 1.27. It also gave a relative viability (201T; first compound 0.002 µM) of 1.03, a relative viability (201T; first compound 0.006325 µM) of 0.961 and a relative viability (201T; first compound 0.02 µM) of 0.878. It also gave a relative viability (201T; first compound 0.06325 µM) of 1.02, a relative viability (201T; first compound 0.2 µM) of 0.986 and a relative viability (HOP-62; first compound 0.002 µM) of 1.13. The relative viability (HOP-62; first compound 0.006325 µM) was 1.08, the relative viability (HOP-62; first compound 0.02 µM) was 0.695 and the relative viability (HOP-62; first compound 0.06325 µM) was 0.762. For the same compound, the relative viability (HOP-62; first compound 0.2 µM) was 0.0994, the relative viability (NCI-H460; first compound 0.002 µM) was 1.11 and the relative viability (NCI-H460; first compound 0.006325 µM) was 0.871. The relative viability (NCI-H460; first compound 0.02 µM) was 0.0465, the relative viability (NCI-H460; first compound 0.06325 µM) was 0.0095 and the relative viability (NCI-H460; first compound 0.2 µM) was 0.0127. For the same compound, the relative viability (LK-2; first compound 0.002 µM) was 0.849, the relative viability (LK-2; first compound 0.006325 µM) was 0.941 and the relative viability (LK-2; first compound 0.02 µM) was 0.545. It also gave a relative viability (LK-2; first compound 0.06325 µM) of 0.252, a relative viability (LK-2; first compound 0.2 µM) of 0.204 and a relative viability (NCI-H1563; first compound 0.002 µM) of 0.963. The relative viability (NCI-H1563; first compound 0.006325 µM) was 0.818, the relative viability (NCI-H1563; first compound 0.02 µM) was 0.616 and the relative viability (NCI-H1563; first compound 0.06325 µM) was 0.474. The relative viability (NCI-H1563; first compound 0.2 µM) was 0.528, the relative viability (EKVX; first compound 0.002 µM) was 0.183 and the relative viability (EKVX; first compound 0.006325 µM) was 0.228. The relative viability (EKVX; first compound 0.02 µM) was 0.175, the relative viability (EKVX; first compound 0.06325 µM) was 0.158 and the relative viability (EKVX; first compound 0.2 µM) was 0.0973. For the same compound, the relative viability (BEN; first compound 0.002 µM) was 0.717, the relative viability (BEN; first compound 0.006325 µM) was 0.536 and the relative viability (BEN; first compound 0.02 µM) was 0.363. For the same compound, the relative viability (BEN; first compound 0.06325 µM) was 0.211, the relative viability (BEN; first compound 0.2 µM) was 0.237 and the relative viability (NCI-H1734; first compound 0.002 µM) was 1.08. The relative viability (NCI-H1734; first compound 0.006325 µM) was 1, the relative viability (NCI-H1734; first compound 0.02 µM) was 0.675 and the relative viability (NCI-H1734; first compound 0.06325 µM) was 0.123. The relative viability (NCI-H1734; first compound 0.2 µM) was 0.132, the relative viability (HCC-15; first compound 0.002 µM) was 0.812 and the relative viability (HCC-15; first compound 0.006325 µM) was 0.783. For the same compound, the relative viability (HCC-15; first compound 0.02 µM) was 0.883, the relative viability (HCC-15; first compound 0.06325 µM) was 0.308 and the relative viability (HCC-15; first compound 0.2 µM) was 0.136.
